Publication PMC7381729, “A new class of PentixaFor- and PentixaTher-based theranostic agents with enhanced CXCR4-targeting efficiency” (Theranostics, 2020)

target: T1, human CXCR4 (hCXCR4) (Homo sapiens, UniProt P61073); assay: Competition binding to hCXCR4, Jurkat cells, [125I]FC-131 as radioligand; settings: natBi-complex, Jurkat cells 400.000 cells/sample, means ± SD of min. three separate experiments, read-out: ^natBi-complex IC50 to hCXCR4
T1 construct: hCXCR4-expressing Jurkat human T-cell leukemia cells; endogenous in cells; host or cells: Jurkat human T-cell leukemia cells (whole cells)
Experimental: Experiments were performed in triplicate with n=3 per concentration in each experiment. IC50 values were calculated using GraphPad Prism 6.01 (Graph Pad Software, San Diego, USA).
Figure 2 Binding affinities (IC50 in nM) of the respective ^natGa-, ^natLu-, ^natY- and ^natBi-complexes of PentixaFor (entry 1), PentixaTher (entry 2) and a series of CPCR4-(blue) and iodoCPCR4-(black) derived analogs with modified linker structure (entries 3-14) to human CXCR4 (hCXCR4). […] Each experiment was performed in triplicate, and results are means ± SD from a minimum of three separate experiments. TEXT PRINTED IN THE PICTURE: 1: ^natGa-complex IC50 [nM]: 24.8 ± 2.5; ^natLu-complex IC50 [nM]: 41 ± 12; ^natY-complex IC50 [nM]: 40 ± 27 | 2: ^natGa-complex IC50 [nM]: 6.1 ± 1.5; ^natLu-complex IC50 [nM]: 14.6 ± 1.0; ^natY-complex IC50 [nM]: 20.4 ± 0.3; ^natBi-complex IC50 [nM]: 24.4 ± 3.7 | 3: ^natGa-complex IC50 [nM]: 282 ± 90; ^natLu-complex IC50 [nM]: 12.5 ± 3.2; ^natY-complex IC50 [nM]: 216 ± 33; ^natBi-complex IC50 [nM]: 27 ± 14 | 4: ^natGa-complex IC50 [nM]: 14.4 ± 0.3; ^natLu-complex IC50 [nM]: 28 ± 9; ^natY-complex IC50 [nM]: 83 ± 30 | 5: ^natLu-complex IC50 [nM]: 106 ± 10 | 6: ^natGa-complex IC50 [nM]: 7.9 ± 1.1; ^natLu-complex IC50 [nM]: 5.9 ± 0.3; ^natY-complex IC50 [nM]: 6.7 ± 1.2; ^natBi-complex IC50 [nM]: 14.5 ± 0.2 | 7: ^natGa-complex IC50 [nM]: 47 ± 8; ^natLu-complex IC50 [nM]: 39 ± 1; ^natY-complex IC50 [nM]: 43 ± 2 | 8: ^natGa-complex IC50 [nM]: 3.6 ± 0.7; ^natLu-complex IC50 [nM]: 3.5 ± 0.3; ^natY-complex IC50 [nM]: 4.1 ± 1.3; ^natBi-complex IC50 [nM]: 3.5 ± 0.4 | 9: ^natGa-complex IC50 [nM]: 8.9 ± 3.8; ^natLu-complex IC50 [nM]: 8.0 ± 3.1; ^natY-complex IC50 [nM]: 6.3 ± 2.5 | 10: ^natGa-complex IC50 [nM]: 2.4 ± 0.1; ^natLu-complex IC50 [nM]: 3.6 ± 1.1; ^natY-complex IC50 [nM]: 2.4 ± 0.2; ^natBi-complex IC50 [nM]: 38 ± 25 | 11: ^natGa-complex IC50 [nM]: 9.7 ± 2.8; ^natLu-complex IC50 [nM]: 5.4 ± 1.6; ^natY-complex IC50 [nM]: 8.7 ± 2.9 | 12: ^natGa-complex IC50 [nM]: 1.4 ± 0.2; ^natLu-complex IC50 [nM]: 2.1 ± 0.3; ^natY-complex IC50 [nM]: 2.1 ± 0.3; ^natBi-complex IC50 [nM]: 2.9 ± 0.1 | 13: ^natGa-complex IC50 [nM]: 0.4 ± 0.1; ^natLu-complex IC50 [nM]: 1.5 ± 0.1; ^natY-complex IC50 [nM]: 1.5 ± 0.1 | 14: ^natGa-complex IC50 [nM]: 2.6 ± 1.0; ^natLu-complex IC50 [nM]: 1.7 ± 0.6; ^natY-complex IC50 [nM]: 1.6 ± 0.5; ^natBi-complex IC50 [nM]: 1.8 ± 0.8

T1 sequence (P61073 whole entry): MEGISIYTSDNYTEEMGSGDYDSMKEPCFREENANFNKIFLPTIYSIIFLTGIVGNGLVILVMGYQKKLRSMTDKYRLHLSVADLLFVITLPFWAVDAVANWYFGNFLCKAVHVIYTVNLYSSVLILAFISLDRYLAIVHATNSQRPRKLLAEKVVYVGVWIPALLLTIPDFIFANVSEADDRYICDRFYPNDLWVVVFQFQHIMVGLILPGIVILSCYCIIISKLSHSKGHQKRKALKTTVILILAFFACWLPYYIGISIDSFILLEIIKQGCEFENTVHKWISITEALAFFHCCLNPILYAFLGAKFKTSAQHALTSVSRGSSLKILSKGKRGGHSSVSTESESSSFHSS

IC50	Substance
14.5 ± 0.2 nM	DOTA-G-ABA-iodoCPCR4 (head to tail) [entry 6]
38 ± 25 nM	DOTA-k-G-ABA-iodoCPCR4 (head to tail) [entry 10]

same assay, conditions: natGa-complex, Jurkat cells 400.000 cells/sample, means ± SD of min. three separate experiments, read-out: ^natGa-complex IC50 to hCXCR4

IC50	Substance
7.9 ± 1.1 nM	DOTA-G-ABA-iodoCPCR4 (head to tail) [entry 6]
8.9 ± 3.8 nM	DOTA-k-G-ABA-CPCR4 [entry 9]
2.4 ± 0.1 nM	DOTA-k-G-ABA-iodoCPCR4 (head to tail) [entry 10]
9.7 ± 2.8 nM	DOTA-r-G-ABA-CPCR4 [entry 11]
14.4 ± 0.3 nM	DOTAGA-ABA-iodoCPCR4 (head to tail) [entry 4]
47 ± 8 nM	DOTAGA-G-ABA-iodoCPCR4 (head to tail) [entry 7]
24.8 ± 2.5 nM	PentixaFor [entry 1, reference compound]

same assay, conditions: natLu-complex, Jurkat cells 400.000 cells/sample, means ± SD of min. three separate experiments, read-out: ^natLu-complex IC50 to hCXCR4

IC50	Substance
5.9 ± 0.3 nM	DOTA-G-ABA-iodoCPCR4 (head to tail) [entry 6]
106 ± 10 nM	DOTA-d-ABA-iodoCPCR4 (head to tail) [entry 5]
8 ± 3.1 nM	DOTA-k-G-ABA-CPCR4 [entry 9]
3.6 ± 1.1 nM	DOTA-k-G-ABA-iodoCPCR4 (head to tail) [entry 10]
5.4 ± 1.6 nM	DOTA-r-G-ABA-CPCR4 [entry 11]
28 ± 9 nM	DOTAGA-ABA-iodoCPCR4 (head to tail) [entry 4]
39 ± 1 nM	DOTAGA-G-ABA-iodoCPCR4 (head to tail) [entry 7]
41 ± 12 nM	PentixaFor [entry 1, reference compound]

same assay, conditions: natY-complex, Jurkat cells 400.000 cells/sample, means ± SD of min. three separate experiments, read-out: ^natY-complex IC50 to hCXCR4

IC50	Substance
6.7 ± 1.2 nM	DOTA-G-ABA-iodoCPCR4 (head to tail) [entry 6]
6.3 ± 2.5 nM	DOTA-k-G-ABA-CPCR4 [entry 9]
2.4 ± 0.2 nM	DOTA-k-G-ABA-iodoCPCR4 (head to tail) [entry 10]
8.7 ± 2.9 nM	DOTA-r-G-ABA-CPCR4 [entry 11]
83 ± 30 nM	DOTAGA-ABA-iodoCPCR4 (head to tail) [entry 4]
43 ± 2 nM	DOTAGA-G-ABA-iodoCPCR4 (head to tail) [entry 7]
40 ± 27 nM	PentixaFor [entry 1, reference compound]
